For 10 compounds, IC50 results are on record in patent US20250270218A1, “IMIDAZ0[1,2-A]PYRIMIDINE-5(1 H)-ONES AS WRN INHIBITORS” (Incyte Corporation, priority 2023, published 2025).

Broadly, the pIC50 is the IC50 on a negative log10 scale, so that one unit is a factor of ten. A high value points to a small IC50.

Experiment [1] concerns the target T1, WRN (Homo sapiens, UniProt Q14191).
T1 construct: A His-tagged construct of WRN (AA S2-S1235) was produced and used for the ATPase assay; made in house; host or cells: Sf9 insect cells (baculovirus, pFastBac1)
The experiment is described as follows: WRN Helicase activity assay (fluorescence DNA unwinding). It counts as biochemical. The conditions noted are these: 1-hr pre-incubation with enzyme; 25 nM forked dsDNA, 100 μM ATP, 1 nM WRN; geometric mean of at least 2 replicates. As for the experimental part: Compounds of the examples were tested for WRN helicase activity. DNA encoding the target protein, 6×HIS-TEV-WRN-517-945, was produced, cloned, and transfected as detailed in Example D. To determine the inhibitory properties of the compounds, a 384 wells plate-based Helicase assay was set up to measure the extent of DNA unwinding (Helicase) activity of WRN. The WRN Helicase assay was designed to measure increase in fluorescence signal using a fluorescence based, donor-quencher paired forked dsDNA oligomer substrate (custom synthesis from Sigma-Aldrich) prepared by annealing equal amounts of oligo GPat-1 ([BHQ2][…]) and oligo GPat-2 ([…][TAM]). Continuous measurement of fluorescent signal was used to optimize the buffer conditions, concentration of enzyme (WRN), concentration of substrates (ATP & dsDNA), and the linearity of the Helicase reaction. All solutions were prepared in the following assay buffer: 50 mM Tris-HCl, pH-7.5, 2 mM MgCl2, 50 mM NaCl, 1 mM EGTA, 0.01% P-20, 0.05% BSA, and 2 mM DTT prepared with nuclease free water.
A serial dilution (1:3 scheme) of the compounds was prepared in neat DMSO and 100 nL of the compounds was dispensed in the Greiner black low volume (Greiner #784076) 384 wells assay plate. A 1-hr pre-incubation of the compounds with enzyme was included. A His-tagged construct of WRN (AA S2-S1235) was produced and used for the ATPase assay. Maximum inhibition control wells were set up with the addition of only assay buffer, and no inhibition control wells were set up with neat DMSO without test compounds. The reaction was initiated by addition of 5 μL substrate mix (200 μM ultrapure ATP, and 50 nM dsDNA prepared in assay buffer) and incubated at 25° C. for 35 min. A typical Helicase reaction consists of 25 nM forked dsDNA, 100 μM ATP, and 1 nM WRN prepared in assay buffer. The WRN Helicase reaction was quenched by the addition of 5 μL ‘STOP’ solution containing 100 mM EDTA (final EDTA concentration 33.33 mM) prepared in assay buffer. The plates were read on BMG PHERAstar FSX using 540/590 module to measure an increase of fluorescence. Data analysis was carried out using the Genedata software following % of control normalization. Fitting parameters include dose response IC50, Hill slope (n), maximum inhibition (S∞), and minimum inhibition (S0). The reported IC50 values for compounds in this invention are the geometric means of at least 2 independent replicates.

The target in experiment [2] is T1, WRN. Kind of experiment: WRN ATPase activity assay (ADP-Glo). The format is biochemical. Conditions: 1-hr pre-incubation with enzyme; 25 nM forked dsDNA, 100 μM ATP, 1 nM WRN; geometric mean of at least 2 replicates. The procedure:
Compounds of the Examples were tested for WRN ATPase activity. WRN ATPase activity catalyzes ATP hydrolysis to produce ADP and phosphate. DNA encoding the target protein, 6×HIS-TEV-WRN-517-945, was produced, cloned, and transfected as detailed in Example D. The amount of ADP produced was measured using ADP-Glo™ Kinase Assay kit from Promega Corporation in a Greiner white regular volume 384 wells assay plate (Greiner #781075). Data was normalized to a standard curve generated using various ADP concentrations and the corresponding luminescent signal intensities at each concentration. The assay conditions were optimized for enzyme concentration (WRN), substrate concentrations (ATP & dsDNA), and the linearity of the ATPase reaction, in the following assay buffer: 50 mM Tris-HCl, pH-7.5, 2 mM MgCl2, 50 mM NaCl, 1 mM EGTA, 0.01% P-20, 0.05% BSA, and 2 mM DTT prepared with nuclease free water.
A serial dilution (1:3 scheme) of the compounds were prepared in neat DMSO, with 100 nL of the compounds dispensed in the 384 wells assay plate. A 1-hr pre-incubation of the compounds with enzyme was included. A His-tagged construct of WRN (AA S2-S1235) was produced and used for the ATPase assay. Maximum inhibition control wells were set up with the addition of only assay buffer, and no inhibition control wells were set up with neat DMSO without test compounds. The reaction was initiated by addition of 5 μL substrate mix (200 μM ultrapure ATP, and 50 nM dsDNA prepared in assay buffer) and incubated at 25° C. for 35 min. A forked dsDNA oligomer substrate was prepared by annealing equal amounts of oligo GPat-1 ([BHQ2][…]) and oligo GPat-2 ([…][TAM]) and was used as dsDNA substrate for WRN ATPase assay. A typical ATPase reaction consists of 25 nM forked dsDNA, 100 μM ATP, and 1 nM WRN prepared in assay buffer. The WRN ATPase reaction was stopped by the addition of 5 μL of ADP-Glo Reagent from ADP-Glo™ Kinase Assay kit and incubated for 40 min to deplete the unreacted ATP. Afterwards, 5 μL of Kinase Detection Reagent from the ADP-Glo™ Kinase Assay kit was added and incubated for 1 hr for the development of luminescence signal.
Luminesce signals were measured on BMG PHERAstar FSX using luminescence protocol. Data analysis was carried out using Genedata software following % of control normalization. Fitting parameters include dose response IC50, Hill slope (n), maximum inhibition (S∞), and minimum inhibition (S0). The reported IC50 values for compounds in this invention are the geometric means of at least 2 independent replicates.
For orientation: ADP-Glo first removes unused ATP, then detects ADP through luciferase.

pIC50: −log10 of the molar value. Where only a bound is given, the exact number is not on record here.

T1 sequence (Q14191 2-1235): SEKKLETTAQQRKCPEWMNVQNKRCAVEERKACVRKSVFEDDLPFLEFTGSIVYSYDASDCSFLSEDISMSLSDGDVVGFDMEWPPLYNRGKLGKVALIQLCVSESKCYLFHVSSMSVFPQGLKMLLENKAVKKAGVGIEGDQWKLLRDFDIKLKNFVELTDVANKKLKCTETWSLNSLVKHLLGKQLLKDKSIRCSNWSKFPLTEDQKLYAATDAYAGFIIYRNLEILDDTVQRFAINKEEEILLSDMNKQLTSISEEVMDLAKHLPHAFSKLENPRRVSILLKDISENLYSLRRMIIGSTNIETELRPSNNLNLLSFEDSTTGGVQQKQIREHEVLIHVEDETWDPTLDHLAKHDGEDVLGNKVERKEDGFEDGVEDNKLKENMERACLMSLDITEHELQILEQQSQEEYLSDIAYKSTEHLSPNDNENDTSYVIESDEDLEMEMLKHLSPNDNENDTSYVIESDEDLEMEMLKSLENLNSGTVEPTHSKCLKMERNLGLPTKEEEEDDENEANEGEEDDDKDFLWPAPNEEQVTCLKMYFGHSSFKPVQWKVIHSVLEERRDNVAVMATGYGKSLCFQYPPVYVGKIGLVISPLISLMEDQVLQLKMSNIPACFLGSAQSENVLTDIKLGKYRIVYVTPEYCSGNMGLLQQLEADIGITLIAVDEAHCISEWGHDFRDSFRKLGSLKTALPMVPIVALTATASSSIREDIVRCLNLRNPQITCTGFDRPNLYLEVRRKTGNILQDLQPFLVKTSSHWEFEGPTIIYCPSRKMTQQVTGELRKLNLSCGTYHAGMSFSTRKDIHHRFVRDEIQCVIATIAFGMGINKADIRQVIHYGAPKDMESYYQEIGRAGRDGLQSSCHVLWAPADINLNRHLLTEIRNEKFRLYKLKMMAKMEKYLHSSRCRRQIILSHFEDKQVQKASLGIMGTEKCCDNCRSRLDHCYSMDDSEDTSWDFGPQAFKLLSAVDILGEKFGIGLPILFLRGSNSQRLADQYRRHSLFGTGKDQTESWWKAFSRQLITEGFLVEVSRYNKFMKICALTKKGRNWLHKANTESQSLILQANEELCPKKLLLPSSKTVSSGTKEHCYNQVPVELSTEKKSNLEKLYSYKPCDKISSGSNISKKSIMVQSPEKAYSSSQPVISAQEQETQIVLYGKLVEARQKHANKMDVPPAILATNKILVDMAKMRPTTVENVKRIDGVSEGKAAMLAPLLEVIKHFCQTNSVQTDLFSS

Consider `C=CC(=O)Nc1ccccc1-c1c(C)nc2n(CC(=O)Nc3ccc(C(F)(F)F)cc3)c(CC)c(-c3ccc(C(=O)NC)nc3)c(=O)n12` [Example 10, 5-(3-(2-Acrylamidophenyl)-7-ethyl-2-methyl-5-oxo-8-(2-oxo-2-((4-(trifluoromethyl)phenyl)amino)ethyl)-5,8-dihydroimidazo[1,2-a]pyrimidin-6-yl)-N-methylpicolinamide], for which the pIC50 on WRN [1] and against WRN [2] was more than 7.00 in each case.

Turning to `C=CC(=O)Nc1ccccc1-c1c(CC)n(CC(=O)Nc2ccc(C(F)(F)F)cc2)c2nc(-c3ccccc3)cn2c1=O` [Example 2, N-(2-(7-Ethyl-5-oxo-8-(2-oxo-2-((4-(trifluoromethyl)phenyl)amino)ethyl)-2-phenyl-5,8-dihydroimidazo[1,2-a]pyrimidin-6-yl)phenyl)acrylamide], the pIC50 against WRN [1] and against WRN [2] was 6.30 to 7.00 in each case.

Turning to `C=CC(=O)Nc1ccccc1-c1c(CC)n(CC(=O)Nc2ccc(F)cc2Cl)c2nc(C)c(C)n2c1=O` [Example 4, N-(2-(8-(2-((2-chloro-4-fluorophenyl)amino)-2-oxoethyl)-7-ethyl-2,3-dimethyl-5-oxo-5,8-dihydroimidazo[1,2-a]pyrimidin-6-yl)phenyl)acrylamide], the pIC50 on WRN [1] and on WRN [2] was 6.30 to 7.00 each time.

`C=CC(=O)Nc1ccccc1-c1c(CC)n(CC(=O)Nc2ccc(F)cc2)c2nc(C)c(C)n2c1=O` [Example 3, N-(2-(7-Ethyl-8-(2-((4-fluorophenyl)amino)-2-oxoethyl)-2,3-dimethyl-5-oxo-5,8-dihydroimidazo[1,2-a]pyrimidin-6-yl)phenyl)acrylamide]: the pIC50 against WRN [1] and against WRN [2] was more than 7.00 throughout.

Turning to `C=CC(=O)Nc1ccccc1-c1c(CC)n(CC(=O)Nc2ccc(C(F)(F)F)cc2)c2nc(C)c(C)n2c1=O` [Example 1, N-(2-(7-ethyl-2,3-dimethyl-5-oxo-8-(2-oxo-2-((4-(trifluoromethyl)phenyl)amino)ethyl)-5,8-dihydroimidazo[1,2-a]pyrimidin-6-yl)phenyl)acrylamide], the pIC50 against WRN [1] and at WRN [2] was 6.30 to 7.00 in each case.

On to `C=CC(=O)Nc1ccccc1-c1c(C)nc2n(CC(=O)Nc3ccc(C(F)(F)F)cc3)c(CC)c(-c3ccc(C(=O)NCC)cc3)c(=O)n12` [Example 9, 4-(3-(2-Acrylamidophenyl)-7-ethyl-2-methyl-5-oxo-8-(2-oxo-2-((4-(trifluoromethyl)phenyl)amino)ethyl)-5,8-dihydroimidazo[1,2-a]pyrimidin-6-yl)-N-ethylbenzamide], for which the pIC50 on WRN [1] and against WRN [2] was more than 7.00 throughout.

For the compound `C=CC(=O)Nc1ccccc1-c1c(CC)n(CC(=O)Nc2ccc(C(F)(F)F)cc2)c2nc(C)c(-c3ccccc3)n2c1=O` [Example 5, N-(2-(7-ethyl-2-methyl-5-oxo-8-(2-oxo-2-((4-(trifluoromethyl)phenyl)amino)ethyl)-3-phenyl-5,8-dihydroimidazo[1,2-a]pyrimidin-6-yl)phenyl)acrylamide], the pIC50 against WRN [1] and against WRN [2] was 6.30 to 7.00 in each case.

In the case of `C=CC(=O)Nc1ccccc1-c1c(C)nc2n(CC(=O)Nc3ccc(F)cc3)c(CC)c(-c3ccccc3)c(=O)n12` [Example 6, N-(2-(7-Ethyl-8-(2-((4-fluorophenyl)amino)-2-oxoethyl)-2-methyl-5-oxo-6-phenyl-5,8-dihydroimidazo[1,2-a]pyrimidin-3-yl)phenyl)acrylamide], the pIC50 against WRN [1] and against WRN [2] was 6.30 to 7.00 each time.

Take `C=CC(=O)Nc1ccccc1-c1c(C)nc2n(CC(=O)Nc3ccc(C(F)(F)F)cc3)c(CC)c(C)c(=O)n12` [Example 8, N-(2-(7-Ethyl-2,6-dimethyl-5-oxo-8-(2-oxo-2-((4-(trifluoromethyl)phenyl)amino)ethyl)-5,8-dihydroimidazo[1,2-a]pyrimidin-3-yl)phenyl)acrylamide]: the pIC50 against WRN [1] and against WRN [2] was more than 7.00 in each case.

As for `C=CS(=O)(=O)Nc1ccccc1-c1c(C)nc2n(CC(=O)Nc3ccc(F)cc3)c(CC)c(-c3ccccc3)c(=O)n12` [Example 7, 2-(7-Ethyl-2-methyl-5-oxo-6-phenyl-3-(2-(vinylsulfonamido)phenyl)imidazo[1,2-a]pyrimidin-8(5H)-yl)-N-(4-fluorophenyl)acetamide], the pIC50 against WRN [1] and at WRN [2] was more than 7.00 each time.
